The values below come from PMC12147034, “Identification of alkynyl nicotinamide HSN748 as a RET solvent-front mutant inhibitor with intracranial efficacy” (RSC Medicinal Chemistry, 2025).

Where two headings read alike, the source gives them in different places.

For data set [1], the system named is B/KR(G810C)-luc brain tumors. Description: Intracranial B/KR(G810C)-luc tumor experiment (bioluminescence imaging). The note with it: for inhibition at 10 mg/kg: Mus musculus, 10 mg kg^-1, not statistically significant. It is filed as in vivo, mice. As for the experimental part: Fig. 5 Intracranial efficacy of alkynyl nicotinamide-based RET TKIs. B/KR(G810C)-luc cells were injected into mouse brains and treated with indicated compounds. (A) Responses of intracranial tumors to the treatment were monitored by measurement of bioluminescence signal in the animal heads. The data are means and SEM. (B) Response of extracranial tumors were monitored by subtracting whole body bioluminescence signal with the bioluminescence signals of the head. (C) Bioluminescence images of vehicle- and 20 mg kg^−1 HSN748-treated mice on day 0 and day 23 to illustrate the progression of tumors in vehicle-treated mice and suppression of tumor growth in HSN748-treated mic. TEXT PRINTED IN THE PICTURE: (C) HSN748: ROI 5 = 6.99e+4 (20 mg/kg; Day 0); ROI 5 = 9.86e+4 (20 mg/kg; Day 0); ROI 1 = 2.22e+5 (20 mg/kg; Day 0); ROI 1 = 1.08e+8 (20 mg/kg; Day 23); ROI 2 = 1.43e+7 (20 mg/kg; Day 23); ROI 3 = 1.59e+9 (20 mg/kg; Day 23); ROI 1 = 3.56e+8 (20 mg/kg; Day 23) DOUBTS OF THE COPYIST ABOUT THIS PICTURE: Panels A and B print no numbers for any substance, only curves, axes and legends, so nothing was read from them. / Panel C: the ROI values are very small, blurred instrument overlays on the mouse images. In all values given, the digits 3, 5, 6, 8 and 9 and the exponents cannot be told apart with certainty. / HSN748, Day 0, 'ROI 5 = 6.99e+4': the ROI number may be 1 or 5, and 6.99 may be 8.99. / HSN748, Day 0, 'ROI 5 = 9.86e+4': the ROI number may be 3 or 5, and the exponent may be cut off at the image edge. / HSN748, Day 0, 'ROI 1 = 2.22e+5': the last digit of the exponent is uncertain. / HSN748, Day 0: 'ROI 3 = ...', 'ROI 2 = 2.35e...', 'ROI 1 = 3.0...' and the fragments 'e+5' and 'e+4' are cut off by the image crop and were left out. / HSN748, Day 23: 'ROI 2 = ...' in the right image is cut off and was left out. / HSN748, Day 23, 'ROI 1 = 1.08e+8': may be 1.06 or 1.08. / HSN748, Day 23, 'ROI 3 = 1.59e+9': the exponent may be 8 or 9. / HSN748, Day 23, 'ROI 1 = 3.56e+8': may be 3.58 or 3.56. / The Vehicle (control) mice in panel C also carry ROI labels. They were left out because Vehicle is a control, not a substance, and several are cut off. Day 0 reads about ROI 1 = 7.31e+4, ROI 2 = 9.65e+4, ROI 3 = 2.43e+5. Day 23 reads about ROI 1 = 7.32e+6, ROI 2 = 1.14e+9, ROI 3 = 1.31e+..., ROI 1 = 7.77e+9.
Intracranial tumor experiments were performed using female NRG mice (Jackson Laboratory stock #007799) 10–12 weeks old as the hosts. Mice were anesthetized with 3% isoflurane gas and situated in a stereotactic frame (Stoelting). To determine the injection site, the scalp was opened with a scalpel and the bregma was located. Then the point 1.5 mm posterior and 2 mm to the right was identified and a 2 mm burr hole was drilled just through the skull. 3 × 10^5 B/KR(G810C)-Luc cells in 3 μL were injected into the brain at a depth of 4 mm over 3 minutes using a 10 μL Hamilton syringe. The syringe was withdrawn over 5 minutes and the hole was filled with bone wax, the scalp was closed with medical glue, and the mice were returned to a heated cage for recovery. Tumor growth was determined via bioluminescent imaging with a Spectral Ami Optical Imaging System (Bruker). Mice were anesthetized with 3% isoflurane gas and injected intraperitoneally with 150 mg kg^−1D-luciferin. After 15 minutes, mice were imaged for photon emission to determine tumor burden.

Data set [2] can be described thus: In vivo pharmacokinetics in rats. Also noted: species or system rat. The settings on record: for Vd/F: read-out: Vss/F. As for the experimental part:
For compound HSND19, male SD rats received an intravenous (IV) dose of 2 mg kg^−1 and an oral (PO) dose of 10 mg kg^−1. Both formulations were prepared in 10% DMSO/90% (20% HP-β-CD in water, w/w). Blood samples were collected at 0.25, 0.5, 1, 2, 4, 8, and 24 hours post-dosing. For compound HSN748, male SD rats received oral doses of 20, 50, and 100 mg kg^−1 in a solution of 0.5% methylcellulose (4000 cp)/0.1 M citrate buffer (pH 4.5). Blood samples were collected at 0.25, 0.5, 1, 2, 4, 6, 8, and 24 hours post-dosing. For IV administration, male CD1 mice received 2 mg kg^−1 prepared with 5% DMSO/5% Tween80/40% PEG400/50% PBS, with sampling at 0.083, 0.25, 0.5, 1, 2, 4, 8, and 24 hours.
In oral PK studies, blood samples were collected at each time point, with a total of 3 animals per study. In IV studies, animals were euthanized after blood collection at each time point to collect brain tissue, using a total of 21 animals per study. Whole blood samples were collected in heparinized tubes and centrifuged to separate plasma. Brain samples were rinsed, weighed, and immediately frozen in liquid nitrogen, and stored at −80 °C until analysis. The PK studies were conducted by Pharmaron (Beijing, China). Animal procedures were performed in accordance with the Guidelines for Care and Use of Laboratory Animals of Pharmaron (Beijing, China) and approved by the Animal Ethics Committee of Pharmaron (Beijing, China).
The mean concentration-time profiles were analyzed using Phoenix WinNonlin (version 8.4; Certara USA, Inc., Princeton, NJ) to calculate standard PK parameters, including the area under the curve from zero to infinity (AUC), bioavailability (F), clearance, volume of distribution, and half-life (t1/2).

Setting [3] is: read-out: inhibition of the extracranial tumors.
Setting [4] is: read-out: inhibition of the intracranial tumors.
Setting [5] is: male, Sprague-Dawley, plasma, Rat, IV, 2 mg kg^-1.
Setting [6] is: male, Sprague-Dawley, plasma, Rat, PO, 10 mg kg^-1.
Where [7] appears, read: male, Sprague-Dawley, rat, plasma, po, oral PK, stated as a range across doses / compounds, read-out: elimination half-life.
The mark [8] stands for this setting: male, Sprague-Dawley, plasma, Rat, PO, 20 mg kg^-1.
Where [9] appears, read: male, Sprague-Dawley, plasma, Rat, PO, 50 mg kg^-1.
The mark [10] stands for this setting: male, Sprague-Dawley, plasma, Rat, PO, 100 mg kg^-1.

`Cc1n[nH]c2ncc(C#Cc3cncc(C(=O)Nc4ccc(CN5CCN(C)CC5)c(C(F)(F)F)c4)c3)cc12` [HSND19, 5-((3-Methyl-1H-pyrazolo[3,4-b]pyridin-5-yl)ethynyl)-N-(4-((4-methylpiperazin-1-yl)methyl)-3-(trifluoromethyl)phenyl)nicotinamide]: the “extracranial bioluminescence signals of B/KR(G810C)-luc tumor cells” value in data set [1] (20 mg kg^-1) was “significantly inhibited”. The inhibition (usually the relative decrease from the control value, in per cent) at 10 mg/kg in data set [1] (setting [3]) was 85%; in data set [1] (setting [4]), 28%. Further, in data set [2] (Rat, IV, 2 mg kg^-1), the AUCBrain was 275 ng·h/mL. Besides, in data set [2] (Rat, IV, 2 mg kg^-1), the peak brain concentration came to 25.5 ng/mL. In data set [2] (Rat, PO, 10 mg kg^-1), this compound yielded a t1/2 of 3.7 h. Also, the Kp in data set [2] (male, Sprague-Dawley, brain and plasma, Rat, IV, 2 mg kg^-1, read-out: brain-to-plasma partition coefficient (Kp), AUCbrain/AUCPlasma) was found to be 0.2. Further, the peak concentration (Cmax) (commonly the peak of the concentration-time curve) is 308 ng/mL in data set [2] (setting [5]) and 182 ng/mL in data set [2] (setting [6]). Moreover, the clearance (in general, the rate of elimination divided by the concentration) in data set [2] (setting [5]) was 24 mL/min/kg. The AUC in data set [2] (male, Sprague-Dawley, plasma, Rat, IV, 2 mg kg^-1, read-out: AUCplasma) was 1390 ng·h/mL; in data set [2] (male, Sprague-Dawley, plasma, Rat, PO, 10 mg kg^-1, read-out: AUCplasma), 1760 ng·h/mL. Besides, the Tmax in data set [2] (male, Sprague-Dawley, plasma, Rat, IV, 2 mg kg^-1, read-out: Tmax) turned out to be 0.25 h; in data set [2] (male, Sprague-Dawley, plasma, Rat, PO, 10 mg kg^-1, read-out: Tmax), 4 h. Moreover, the Vd in data set [2] (male, Sprague-Dawley, plasma, Rat, IV, 2 mg kg^-1, read-out: Vss) was determined as 7.1 L/kg. Besides, the CL/F (in general, the apparent clearance, not corrected for the fraction that reaches the circulation) in data set [2] (setting [6]) is 95 mL/min/kg. In addition, the Vd/F in data set [2] (setting [6]) was 45.1 L/kg. Besides, the half-life in data set [2] (male, Sprague-Dawley, rat, plasma, iv, 2 mg/kg, Rat, IV, 2 mg kg^-1, read-out: t1/2 (converted)) is 3.6 h; in data set [2] (male, Sprague-Dawley, rat, plasma, po, 10 mg/kg, Rat, PO, 10 mg kg^-1, read-out: t1/2 (converted)), 3.6 h; in data set [2] (setting [7]), 3 to 6 h. Also, the bioavailability (usually the share of a dose that reaches the circulation, judged against a reference dose that is usually intravenous) in data set [2] (male, Sprague-Dawley, rat, plasma, po, 10 mg/kg, 10 mg kg^-1) is ~25%.

As to `CN1CCN(Cc2ccc(NC(=O)c3cncc(C#Cc4cnc5cccnn45)c3)cc2C(F)(F)F)CC1` [HSN748], the “extracranial bioluminescence signals of B/KR(G810C)-luc tumor cells” value in data set [1] (20 mg kg^-1) is “significantly inhibited”. Moreover, the “inhibition of intracranial B/KR(G810C)-luc tumors” value in data set [1] (20 mg kg^-1, bioluminescence signal in the head) was “statistically significant inhibition”. For the same compound, the results for the inhibition at 10 mg/kg in data set [1] (setting [3]) and in data set [1] (setting [4]) were 58% and 52%, respectively. Also, the AUCPlasma/dose in data set [2] (Rat, PO, 20 mg kg^-1) stood at 376.3 ng h ml^-1 per mg kg^-1; in data set [2] (Rat, PO, 50 mg kg^-1), 355.7 ng h ml^-1 per mg kg^-1; in data set [2] (Rat, PO, 100 mg kg^-1), 335.5 ng h ml^-1 per mg kg^-1. Further, the AUC in data set [2] (male, SD, plasma, Rat, PO, 20 mg kg^-1, read-out: AUCPlasma (converted)) is 7520 ng·h/mL; in data set [2] (male, SD, plasma, Rat, PO, 50 mg kg^-1, read-out: AUCPlasma (converted)), 17800 ng·h/mL; in data set [2] (male, SD, plasma, Rat, PO, 100 mg kg^-1, read-out: AUCPlasma (converted)) it was 33500 ng·h/mL. Moreover, the Tmax in data set [2] (male, SD, plasma, Rat, PO, 20 mg kg^-1, read-out: Tmax) was 4 h; in data set [2] (male, SD, plasma, Rat, PO, 50 mg kg^-1, read-out: Tmax), 4 h; in data set [2] (male, SD, plasma, Rat, PO, 100 mg kg^-1, read-out: Tmax), 2 h; in data set [2] (male, Sprague-Dawley, plasma, Rat, oral, across 20, 50 and 100 mg kg^-1, read-out: time of peak plasma concentrations postdose), 2 to 4 h. Also, the apparent clearance (CL/F) in data set [2] (setting [8]) was 44.3 mL/min/kg; in data set [2] (setting [9]), 46.8 mL/min/kg; in data set [2] (setting [10]) it was 49.7 mL/min/kg. Also, the figures for the Cmax in data set [2] (setting [8]), in data set [2] (setting [9]) and in data set [2] (setting [10]) were 911 ng/mL, 1830 ng/mL and 3330 ng/mL, respectively. Also, the Vd/F in data set [2] (setting [8]) was 19.3 L/kg; in data set [2] (setting [9]) it was 23.4 L/kg; in data set [2] (setting [10]), 28.9 L/kg. The half-life in data set [2] (male, Sprague-Dawley, rat, plasma, po, 20 mg/kg, Rat, PO, 20 mg kg^-1, read-out: t1/2 (converted)) was 3.05 h; in data set [2] (male, Sprague-Dawley, rat, plasma, po, 50 mg/kg, Rat, PO, 50 mg kg^-1, read-out: t1/2 (converted)), 4.26 h; in data set [2] (male, Sprague-Dawley, rat, plasma, po, 100 mg/kg, Rat, PO, 100 mg kg^-1, read-out: t1/2 (converted)), 5.84 h; in data set [2] (setting [7]), 3 to 6 h.
